Experimental data from patent US9695155B2, “Herbicidal substituted pyrimidinyloxy benzene compounds” (E. I. DU PONT DE NEMOURS AND COMPANY, priority 2013, dated 2017).

Assays:
wild mustard = experiment: Test D preemergence; assay type: in vivo, Sinapis arvensis; settings: for pest or weed control at 16 g/ha: read-out: Plant response rating, Mustard, Wild
Text: (§1) Seeds of plant species selected from bluegrass (annual bluegrass, Poa annua), blackgrass (Alopecurus myosuroides), canarygrass (littleseed canarygrass, Phalaris minor), chickweed (common chickweed, Stellaria media), galium (catchweed bedstraw, Galium aparine), bromegrass, downy (downy bromegrass, Bromus tectorum), field poppy (Papaver rhoeas), field violet (Viola arvensis), green foxtail (Setaria viridis), deadnettle (henbit deadnettle, Lamium amplexicaule), Italian ryegrass (Lolium multiflorum), kochia (Kochia scoparia), lambsquarters (Chenopodium album), oilseed rape (Brassica napus), pigweed (Amaranthus retroflexus), chamomile (scentless chamomile, Matricaria inodora), Russian thistle (Salsola kali), speedwell (bird's-eye speedwell, Veronica persica), spring barley (Hordeum vulgare), spring wheat (Triticum aestivum), wild buckwheat (Polygonum convolvulus), wild mustard (Sinapis arvensis), wild oat (Avena fatua), wild radish (Raphanus raphanistrum), windgrass (Apera spica-venti), winter barley (Hordeum vulgare), and winter wheat (Triticum aestivum) were planted into a silt loam soil and treated preemergence with test chemicals formulated in a non-phytotoxic solvent mixture which included a surfactant.
(§2) At the same time, these species were planted in pots containing Redi-Earth® planting medium (Scotts Company, 14111 Scottslawn Road, Marysville, Ohio 43041) comprising spaghnum peat moss, vermiculite, wetting agent and starter nutrients and treated with postemergence applications of the test chemicals formulated in the same manner. Plants ranged in height from 2 to 18 cm (1- to 4-leaf stage). Treated plants and controls were maintained in a controlled growth environment for 7 to 21 days after which time all species were compared to controls and visually evaluated. Plant response ratings, summarized in Table D, are based on a scale of 0 to 100 where 0 is no effect and 100 is complete control. A dash (-) response means no test result.

wild oat = experiment: Test D preemergence; assay type: in vivo, Avena fatua; settings: for pest or weed control at 16 g/ha: read-out: Plant response rating, Oat, Wild
Text: as §1, §2

blackgrass = experiment: Test D postemergence; assay type: in vivo, Alopecurus myosuroides
Text: as §1, §2

horseweed = experiment: Test E postemergence; assay type: in vivo, Conyza canadensis
Text: Seeds of plant species selected from corn (Zea mays), soybean (Glycine max), velvetleaf (Abutilon theophrasti), lambsquarters (Chenopodium album), wild poinsettia (Euphorbia heterophylla), palmer pigweed (Amaranthus palmeri), waterhemp (common waterhemp, Amaranthus rudis), surinam grass (Brachiaria decumbens), large (Lg) crabgrass (Digitaria sanguinalis), Brazilian crabgrass (Digitaria horizontalis), fall panicum (Panicum dichotomiflorum), giant foxtail (Setaria faberii), green foxtail (Setaria viridis), goosegrass (Eleusine indica), johnsongrass (Sorghum halepense), ragweed (common ragweed, Ambrosia elatior), barnyardgrass (Echinochloa crus-galli), sandbur (southern sandbur, Cenchrus echinatus), arrowleaf sida (Sida rhombifolia), Italian ryegrass (Lolium multiflorum), dayflower (Virginia (VA) dayflower, Commelina virginica), field bindweed (Convolvulus arvensis), morningglory (Ipomoea coccinea), nightshade (eastern black nightshade, Solanum ptycanthum), kochia (Kochia scoparia), yellow nutsedge (Cyperus esculentus), cocklebur (common cocklebur, Xanthium strumarium), smartweed (ladysthumb smartweed, and hairy beggarticks (Bidens pilosa), were planted into a silt loam soil and treated preemergence with test chemicals formulated in a non-phytotoxic solvent mixture which included a surfactant.
At the same time, plants from these crop and weed species and also horseweed (Canada horseweed, Conyza canadensis), waterhemp_RES1, (ALS & Triazine resistant common waterhemp, Amaranthus rudis), and waterhemp_RES2, (ALS & HPPD resistant common waterhemp, Amaranthus rudis) were planted in pots containing Redi-Earth® planting medium (Scotts Company, 14111 Scottslawn Road, Marysville, Ohio 43041) comprising spaghnum peat moss, vermiculite, wetting agent and starter nutrients were treated with postemergence applications of test chemicals formulated in the same manner. Plants ranged in height from 2 to 18 cm for postemergence treatments (1- to 4-leaf stage). Treated plants and controls were maintained in a greenhouse for 14 to 21 days, after which time all species were compared to controls and visually evaluated. Plant response ratings, summarized in Table E, are based on a scale of 0 to 100 where 0 is no effect and 100 is complete control. A dash (-) response means no test result.

Russian thistle [1] = experiment: Test D preemergence; assay type: in vivo, Salsola kali; parameters: key: 0 = no effect, 100 = complete control
Text: as §1, §2

Russian thistle [2] = experiment: Test D postemergence; assay type: in vivo, Salsola kali
Text: as §1, §2

[3] = Brassica, pre-emergence, 31 g ai/ha, scale 0-100, read-out: Plant response rating, Mustard, Wild
[4] = Brassica, pre-emergence, 62 g ai/ha, scale 0-100, read-out: Plant response rating, Mustard, Wild
[5] = Brassica, pre-emergence, 125 g ai/ha, scale 0-100, read-out: Plant response rating, Mustard, Wild
[6] = Avena fatua, pre-emergence, 31 g ai/ha, scale 0-100, read-out: Plant response rating, Oat, Wild
[7] = Avena fatua, pre-emergence, 62 g ai/ha, scale 0-100, read-out: Plant response rating, Oat, Wild
[8] = Avena fatua, pre-emergence, 125 g ai/ha, scale 0-100, read-out: Plant response rating, Oat, Wild
[9] = Alopecurus myosuroides, post-emergence, Postemergence, 62 g ai/ha, scale 0 to 100 (0 no effect, 100 complete control), read-out: Plant response rating, Blackgrass
[10] = Alopecurus myosuroides, post-emergence, Postemergence, 31 g ai/ha, scale 0 to 100 (0 no effect, 100 complete control), read-out: Plant response rating, Blackgrass
[11] = Alopecurus myosuroides, post-emergence, Postemergence, 125 g ai/ha, scale 0 to 100 (0 no effect, 100 complete control), read-out: Plant response rating, Blackgrass
[12] = Postemergence, 31 g ai/ha, scale 0 to 100
[13] = Postemergence, 62 g ai/ha, scale 0 to 100
[14] = Postemergence, 125 g ai/ha, scale 0 to 100
[15] = postemergence, 16 g ai/ha, scale 0 to 100, 0 no effect, 100 complete control
[16] = 16 g ai/ha, scale 0 (no effect) to 100 (complete control)
[17] = 31 g ai/ha, scale 0 (no effect) to 100 (complete control)
[18] = Brassica, pre-emergence, 16 g ai/ha, scale 0 (no effect) to 100 (complete control)
[19] = Avena fatua, pre-emergence, 16 g ai/ha, scale 0 (no effect) to 100 (complete control)
[20] = Alopecurus myosuroides, post-emergence, Postemergence, 16 g ai/ha, scale 0 to 100 (0 no effect, 100 complete control), read-out: Plant response rating, Blackgrass
[21] = 31 g ai/ha, scale 0 to 100 (0 no effect, 100 complete control)
[22] = 62 g ai/ha, scale 0 to 100 (0 no effect, 100 complete control)
[23] = 125 g ai/ha, scale 0 to 100 (0 no effect, 100 complete control)

Compound	pest or weed control at 31 g/ha (wild mustard; [3]) [%]	pest or weed control at 62 g/ha (wild mustard; [4]) [%]	pest or weed control at 125 g/ha (wild mustard; [5]) [%]	pest or weed control at 31 g/ha (wild oat; [6]) [%]	pest or weed control at 62 g/ha (wild oat; [7]) [%]	pest or weed control at 125 g/ha (wild oat; [8]) [%]	pest or weed control at 62 g/ha (blackgrass; [9]) [%]	pest or weed control at 31 g/ha (blackgrass; [10]) [%]	pest or weed control at 125 g/ha (blackgrass; [11]) [%]	Plant response rating, Horseweed (horseweed; [12])	Plant response rating, Horseweed (horseweed; [13])	Plant response rating, Horseweed (horseweed; [14])	Plant response rating, Horseweed (horseweed; [15])	Plant response rating, Russian Thistle (Russian thistle [1]; [16])	Plant response rating, Russian Thistle (Russian thistle [1]; [17])	Plant response rating, Russian Thistle (Russian thistle [1]; 125 g ai/ha, scale 0-100)	pest or weed control at 16 g/ha (wild mustard; [18]) [%]	pest or weed control at 16 g/ha (wild oat; [19]) [%]	pest or weed control at 16 g/ha (blackgrass; [20]) [%]	Plant response rating, Russian Thistle (Russian thistle [2]; 16 g ai/ha, scale 0-100)	further results
N#Cc1cccc(Oc2ncc(Cl)cn2)c1-n1cc(Br)cn1 [Compound 52, 2-(4-bromo-1H-pyrazol-1-yl)-3-[(5-chloro-2-pyrimidinyl)oxy]benzonitrile]	20	55	90	0	0	0	30	30	40												pest or weed control at 250 g/ha (wild mustard; Brassica, pre-emergence, 250 g ai/ha, scale 0-100, read-out: Plant response rating, Mustard, Wild): 100%; pest or weed control at 250 g/ha (wild oat; Avena fatua, pre-emergence, 250 g ai/ha, scale 0-100, read-out: Plant response rating, Oat, Wild): 20%; pest or weed control at 250 g/ha (blackgrass; Alopecurus myosuroides, post-emergence, Postemergence, 250 g ai/ha, scale 0 to 100 (0 no effect, 100 complete control), read-out: Plant response rating, Blackgrass): 65%
N#Cc1cccc(Oc2ncc(F)cn2)c1-n1cc(C(F)(F)F)cn1 [Compound 79, 3-[(5-fluoro-2-pyrimidinyl)oxy]-2-[4-(trifluoromethyl)-1H-pyrazol-1-yl]benzonitrile]										0	20	30	0								
Fc1cccc(Oc2ncc(Cl)cn2)c1-n1cc(C(F)F)nn1 [Compound 141, 5-chloro-2-[2-[4-(difluoromethyl)-1H-1,2,3-triazol-1-yl]-3-fluorophenoxy]pyrimidine]	100	100	100	65	80	98	35	25	55					15	50	100	90	30	10	40	Plant response rating, Russian Thistle (Russian thistle [1]; 62 g ai/ha, scale 0-100): 75; Plant response rating, Russian Thistle (Russian thistle [2]; [21]): 40; Plant response rating, Russian Thistle (Russian thistle [2]; [22]): 85; Plant response rating, Russian Thistle (Russian thistle [2]; [23]): 95
Clc1cnc(Oc2cccc(Cl)c2-n2cc(I)cn2)nc1 [Compound 181]										0	5	5	0								
FCc1cccc(Oc2ncc(Cl)cn2)c1-n1cc(I)cn1 [Compound 245]														5	10	70				55	Plant response rating, Mustard, Wild (wild mustard; [16]): 80; Plant response rating, Mustard, Wild (wild mustard; 31 g ai/ha, scale 0-100): 80; Plant response rating, Mustard, Wild (wild mustard; 62 g ai/ha, scale 0-100): 85; Plant response rating, Mustard, Wild (wild mustard; 125 g ai/ha, scale 0-100): 100; Plant response rating, Oat, Wild (wild oat; [16]): 0; Plant response rating, Oat, Wild (wild oat; 31 g ai/ha, scale 0-100): 5; Plant response rating, Oat, Wild (wild oat; 62 g ai/ha, scale 0-100): 20; Plant response rating, Oat, Wild (wild oat; 125 g ai/ha, scale 0-100): 15; Plant response rating, Blackgrass (blackgrass; Postemergence, 62 g ai/ha, scale 0 to 100 (0 no effect, 100 complete control)): 20; Plant response rating, Blackgrass (blackgrass; Postemergence, 31 g ai/ha, scale 0 to 100 (0 no effect, 100 complete control)): 10; Plant response rating, Blackgrass (blackgrass; Postemergence, 125 g ai/ha, scale 0 to 100 (0 no effect, 100 complete control)): 25; Plant response rating, Blackgrass (blackgrass; [15]): 5; Plant response rating, Russian Thistle (Russian thistle [2]; [21]): 75; Plant response rating, Russian Thistle (Russian thistle [2]; [22]): 70; Plant response rating, Russian Thistle (Russian thistle [2]; [23]): 80
N#Cc1cccc(Oc2ncc(Cl)cn2)c1-n1cc(OCC(F)(F)F)cn1 [Compound 274, 3-[(5-chloro-2-pyrimidinyl)oxy]-2-[4-(2,2,2-trifluoroethoxy)-1H-pyrazol-1-yl]benzonitrile]	25	95	100	0	15	25	20	15	30								15	0	10		
